Laboratory results from article PMC11858294, “Design, Synthesis and Biological Activity Study of γ-Aminobutyric Acid (GABA) Derivatives Containing Bridged Bicyclic Skeletons as BCAT1 Inhibitors” (Molecules, 2025).

Columns and labels:
[1] = target: T1, BCAT1 enzyme (Homo sapiens, UniProt P54687); assay: BCAT1 enzyme inhibition assay (LeuDH-coupled, NADH fluorescence); type: biochemical
T1 construct: purchased Sino Biological ME17NO0265
T1 sequence (P54687 1-386): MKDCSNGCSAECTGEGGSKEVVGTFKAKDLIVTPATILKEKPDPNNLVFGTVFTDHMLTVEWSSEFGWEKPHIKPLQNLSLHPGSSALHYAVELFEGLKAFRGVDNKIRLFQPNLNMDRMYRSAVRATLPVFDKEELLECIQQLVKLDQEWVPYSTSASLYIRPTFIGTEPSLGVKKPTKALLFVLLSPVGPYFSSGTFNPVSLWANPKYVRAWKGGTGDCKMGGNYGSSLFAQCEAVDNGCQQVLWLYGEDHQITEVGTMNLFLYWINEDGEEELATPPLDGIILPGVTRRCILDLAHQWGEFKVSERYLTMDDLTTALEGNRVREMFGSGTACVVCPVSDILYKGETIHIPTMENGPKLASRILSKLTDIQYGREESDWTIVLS
Procedure: The inhibitory activity of the synthesized compounds against BCAT1 enzyme was screened by a known method, where leucine dehydrogenase (LeuDH) was utilized to catalyze the nicotinamide adenine dinucleotide (NADH)-dependent reduction of the BCAA α-ketoisocaproate (α-KIC) to leucine and NADH consumption was measured through fluorescence and luminescence readouts to assess BCAT1 activity.
The compounds to be tested or PBS was added to a 384-well plate, followed by the addition of assay buffer (50 mM ammonium sulfate, 1 mM EDTA, 2 mM DTT, 0.01% BSA, 0.5 μM PLP, 50 mM HEPES buffer (pH 7.4)), 0.01 U LeuDH enzyme (#E0217, Nanjing Duly Biotechnology Co., Ltd., Nanjing, China) and 15 ng BCAT1 enzyme (#ME17NO0265, Sino Biological, Beijing, China). Subsequently, 40 μM α-KG, 100 μM Leucine and 10 μM NADH substrate mixture were added to initiate the reaction. Fluorescence changes in NADH were dynamically monitored using the Spark cyto (Tecan, Männedorf, Switzerland). The rate of NADH fluorescence decay was calculated to assess enzyme activity.

[2] = system: NCI-H1975 cells; assay: Cell proliferation assay (SRB), NCI-H1975 cells; type: cell-based; conditions: Homo sapiens, proliferation inhibition, 120 h, mean ± SD (n = 3)
Description: (§1) Subsequently, we evaluated the in vitro anti-proliferative activity of compounds 1, 2, 4 and 7 on the proliferation of both 67R and NCI-H1975 cells, using gabapentin as positive controls (Figure 3 and Table 2). These four compounds represented the potent BCAT1 inhibitors in the above enzymatic assay.
(§2) Cell culture and chemical reagents: Human NSCLC NCI-H1975 cells were purchased from American Type Culture Collection (ATCC, Manassas, VA, USA) and cultured in RPMI 1640 medium with 10% FBS in a cell incubator (37 °C, 5% CO2). ASK120067-resistant cells (67R) were constructed, cultured, and authenticated as described previously. Gabapentin (#T0702) was purchased from TargetMol (Boston, MA, USA).
(§3) A sulforodamine B (SRB) colorimetric assay was employed to detect the inhibitory effect of compounds on cell proliferation. Cells in the logarithmic growth phase were seeded into 96-well plates and cultured overnight. After incubation with the indicated compounds for 120 h, the culture medium was discarded. Then, 100 μL of 10% pre-cooled trichloroacetic acid (TCA) was added to each well to fix the cells at 4 °C for 1 h. The wells were then washed five times with distilled water. After drying, 100 μL of SRB dye (4 mg/mL SRB dissolved in 1% glacial acetic acid) was added to each well, and the cells were stained for 15 min at room temperature. After washing with 1% glacial acetic acid for five times, the plate was dried again. To dissolve the dye, 150 μL of 10 mM Tris solution was added to each well. The optical density (OD) was measured at 560 nm using a multi-well VersaMax spectrophotometer (Molecular Devices, Sunnyvale, CA, USA). The relative inhibition rate of the compounds on cell proliferation was calculated using the following formula: Inhibition rate (%) = [1 − (A560treated/A560control)] × 100%. The IC50 values were determined from the dose–response curves using the logit method.

[3] = system: 67R cells; assay: Cell proliferation assay (SRB), ASK120067-resistant 67R cells; type: cell-based, Human; conditions: 120 h, proliferation inhibition, mean ± SD (n = 3), cells with high BCAT1 expression
Description: as §1, §2, §3

[4] = target: hBCAT1; design: method as in PMID 39791161; conditions: Figure 1; cited from earlier work
[5] = system: BCAT1; design: method as in PMID 39791161; conditions: Figure 1; cited from earlier work

SMILES | IC50 [1] [µM] | IC50 [2] [µM] | IC50 ([3]; Homo sapiens) [µM] | other results
NC[C@@]1(CC(=O)O)C[C@H]2C=C[C@@H]1C2 (relative stereo) [2•p-TsOH, 2-((1S*,2R*,4S*)-2-(Aminomethyl)bicyclo[2.2.1]hept-5-en-2-yl)acetic acid] | 2040 ± 980 | 8990 ± 670 | < 2000 | IC50 [3]: 2710 ± 330 µM
NC[C@@]1(CC(=O)O)C[C@H]2CCC[C@@H]1C2 (relative stereo) [Compound 6, 2-((1S*,5R*,6R*)-6-(Aminomethyl)bicyclo[3.2.1]octan-6-yl)acetic acid] | 1540 ± 470 | – | – | –
NCC1(CC(=O)O)CCCCC1 [gabapentin, reference compound] | 5070 ± 1060 | > 10000 | 3530 ± 220 | Ki [4]: 3500 µM
NC[C@@]1(CC(=O)O)C[C@H]2CC=C[C@@H]1C2 (relative stereo) [7•p-TsOH, 2-((1S*,5S*,6R*)-6-(Aminomethyl)bicyclo[3.2.1]oct-3-en-6-yl)acetic acid] | 780 ± 190 | 7260 ± 730 | < 2000 | enhancement in BCAT1 enzymatic inhibitory activity compared to the parent compound WQQ-345 ([1]; ratio of IC50 values versus WQQ-345): 6 fold; IC50 [3]: 1640 ± 490 µM
NC[C@]1(CC(=O)O)C[C@H]2CCC[C@@H]1C2 (relative stereo) [5•HBr, 2-((1S*,5R*,6S*)-6-(Aminomethyl)bicyclo[3.2.1]octan-6-yl)acetic acid] | 4200 ± 1840 | – | – | –
NC[C@]1(CC(=O)O)C[C@H]2CC[C@@H]1C2 [WQQ-345•HBr] | 4860 ± 1980 | – | – | –
NCC1(CC(=O)O)CC2CCC1CC2 (stereo not drawn) [4•HBr, 2-((1R*,2S*,4R*)-2-(aminomethyl)bicyclo[2.2.2]octan-2-yl)acetic acid] | 1710 ± 1000 | 8080 ± 960 | 1380 ± 370 | –
NC[C@]1(CC(=O)O)C[C@H]2CCCC1CC2 (relative stereo) [8•HBr, 2-((1S*,6S*)-6-(Aminomethyl)bicyclo[3.2.2]nonan-6-yl)acetic acid] | 14500 ± 6390 | – | – | –
NC[C@@]1(CC(=O)O)C[C@H]2CC[C@@H]1C2 (relative stereo) [Compound 1, 2-((1R*,2R*,4S*)-2-(Aminomethyl)bicyclo[2.2.1]heptan-2-yl)acetic acid] | 2040 ± 590 | 7820 ± 480 | 2600 ± 930 | –
Cc1ccccc1Oc1cc(-n2c(=O)cc(C(F)(F)F)[nH]c2=O)c2ccccc2c1Cl [BAY-069] | – | – | – | IC50 [5]: 0.031 µM
NC[C@]1(CC(=O)O)C[C@H]2C=C[C@@H]1C2 (relative stereo) [3•p-TsOH, 2-((1S*,2S*,4S*)-2-(Aminomethyl)bicyclo[2.2.1]hept-5-en-2-yl)acetic acid] | 3960 ± 2830 | – | – | –
CC(=O)C(C)CCC(=O)O (centres unmarked) [MOHA] | – | – | – | IC50 [4]: 1 to 10 µM
